PubChem BioAssay (NCI)
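Briefly, cells in 96-well plates were exposed to five compound concentrations for 48 h, and endpoints were estimated by linear interpolation. GI50: concentration for 50% inhibition of growth. At the TGI there is no net growth.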

What was measured:
Experiment in all cases: NCI-60 cell line screen, 48 h
SK-MEL-5 melanoma = test system: SK-MEL-5 melanoma
RXF 393 renal = test system: RXF 393 renal
SN12C renal = test system: SN12C renal
HOP-18 NSCLC = test system: HOP-18 NSCLC
LXFL 529 NSCLC = test system: LXFL 529 NSCLC
SNB-75 CNS = test system: SNB-75 CNS
DMS 273 small cell lung = test system: DMS 273 small cell lung
BT-549 breast = test system: BT-549 breast
NCI/ADR-RES ovarian = test system: NCI/ADR-RES ovarian
MDA-MB-435 = test system: MDA-MB-435

Row | SMILES | TGI (SK-MEL-5 melanoma) | TGI (RXF 393 renal) | TGI (SN12C renal) | TGI (HOP-18 NSCLC) | TGI (LXFL 529 NSCLC) | TGI (SNB-75 CNS) | TGI (DMS 273 small cell lung) | other results
1 | COc1cc(Br)c(C=Nc2cccc3ccc(OS(=O)(=O)c4cccc([N+](=O)[O-])c4)cc23)cc1OC | > 100 µM | 43.5 µM | > 100 µM | > 100 µM | > 100 µM |  |  | 
2 | N.N.N.N.N.N.O=N[O-].[Br-].[Co+3].[Co+3].[OH3+].[OH3+] |  | > 100 µM | > 100 µM | > 100 µM | > 100 µM | > 100 µM |  | GI50 (RXF 393 renal): > 100 µM; GI50 (SN12C renal): > 100 µM; GI50 (HOP-18 NSCLC): 51.7 µM; GI50 (LXFL 529 NSCLC): > 100 µM; GI50 (SNB-75 CNS): > 100 µM
3 | Cc1nn(-c2ccccc2)c(-c2ccccc2[N+](=O)[O-])c1CC#N | > 100 µM | > 100 µM | > 100 µM |  | > 100 µM | > 100 µM | > 100 µM | 
4 | COc1ccc2c(c1)[n+]([O-])c(/C(C)=N/NC(=O)CC#N)c[n+]2[O-] | > 100 µM | > 100 µM | > 100 µM | > 100 µM | > 100 µM | > 100 µM | > 100 µM | 
5 | Nc1nc(CCC(=O)Nc2cccc(C(F)(F)F)c2)cc(-c2ccc3ccccc3c2)n1 | > 100 µM | > 100 µM | > 100 µM | > 100 µM | > 100 µM | > 100 µM | > 100 µM | 
6 | S=c1nc(-c2cccnc2)[nH][nH]1 | > 100 µM | > 100 µM | > 100 µM | > 100 µM | > 100 µM | > 100 µM | > 100 µM | 
7 | CCOC(=O)[C@H]1Nc2ccc(OC)cc2C2c3ccccc3CC21 (stereo partly specified) | > 100 µM | > 100 µM | > 100 µM |  | > 100 µM | > 100 µM | > 100 µM | 
8 | O=C(OC[C@H]1O[C@@H](OC(=O)c2cc(O)c(O)c(O)c2)[C@H](OC(=O)c2cc(O)c(O)c(O)c2)[C@@H](OC(=O)c2cc(O)c(O)c(O)c2)[C@@H]1OC(=O)c1cc(O)c(O)c(O)c1)c1cc(O)c(O)c(O)c1 | 24.2 µM | 31.2 µM | > 100 µM | > 100 µM | > 100 µM |  | 7.07 µM | 
9 | COC(=O)C1=C(CS(=O)c2ccccc2[N+](=O)[O-])ON(C)C1c1ccccc1 (stereo unspecified) | > 100 µM | 71.1 µM | 42.6 µM | > 100 µM | > 100 µM | 84.5 µM | > 100 µM | 
10 | O=c1ccc(=O)c2c(=O)c3ccccc3c(=O)c1=2 | 35.5 µM | > 100 µM | > 100 µM |  | > 100 µM | > 100 µM | > 100 µM | 
11 | CC(=O)OC1[C@H]2c3cc4c(cc3CN3CCC(=C[C@@H]1O)C23)OCO4 (stereo partly specified) |  | > 100 µM | > 100 µM |  | > 100 µM | > 100 µM | > 100 µM | 
12 | Cc1c2cc[n+](C)cc2c(C)c2c1[nH]c1ccc(O)c(OCC(F)(F)F)c12 | 11.6 µM |  | 4.11 µM |  | 8.16 µM | 1.35 µM | 8.79 µM | 
13 | C=C1C(=O)OC2/C=C(\C=O)CC/C=C(\C)C(O)C[C@@H]12 (stereo partly specified) | 22.4 µM | 7.46 µM | 14.5 µM | 31.2 µM | 13.6 µM | 29 µM | 15.7 µM | 
14 | C[N+]1(C)C/C(=C\c2ccncc2)C(=O)/C(=C/c2ccncc2)C1 | > 100 µM | > 100 µM | > 100 µM | > 100 µM | > 100 µM | > 100 µM | > 100 µM | 
15 | CC1(C)C2CCC3(C2)CS(=O)(=O)N2OC231 (stereo unspecified) | 44.8 µM |  | 31.6 µM | 32.1 µM | 30.6 µM | 36.5 µM | 58.5 µM | 
16 | O=[N+]([O-])c1nccn1COCCBr | > 100 µM |  | > 100 µM |  | > 100 µM | > 100 µM |  | 
17 | CCN(CC)c1ccc2c(c1)Nc1cc(=C(C#N)C#N)c3ccccc3c1=N2 | > 100 µM | > 100 µM | > 100 µM | > 100 µM | > 100 µM | > 100 µM | > 100 µM | 
18 | O=C1C2Cc3ccccc3CN2C(=O)N1CCN1CCCC1 (stereo unspecified) | > 100 µM |  | > 100 µM |  | > 100 µM |  | > 100 µM | 
19 | Cc1cc2c(=O)c3ccccc3[nH]c2c(C(=O)O)c1C |  | > 100 µM | > 100 µM |  | > 100 µM | > 100 µM | > 100 µM | 
20 | CCOC(=O)COS(=O)(=O)C(F)(F)F | > 100 µM | > 100 µM | > 100 µM | > 100 µM | > 100 µM | > 100 µM | 36.7 µM | 
21 | CCOC(=O)C(=O)Nc1c(C(C)C)cccc1C(C)C | > 100 µM | > 100 µM | > 100 µM | > 100 µM | > 100 µM | > 100 µM | > 100 µM | 
22 | O=Cc1ccc(-c2cccs2)s1 | > 88.9 µM | 65.3 µM | > 100 µM | > 100 µM | 4.51 µM | > 100 µM | > 100 µM | TGI (BT-549 breast): > 100 µM; TGI (NCI/ADR-RES ovarian): > 100 µM; TGI (MDA-MB-435): > 100 µM
23 | COc1ccc(-c2cn[nH]c2-c2cc(OC)c3c(c2)OCCO3)cc1 | 8.08 µM | 2.77 µM | 73.7 µM |  |  | 0.738 µM |  | GI50 (BT-549 breast): 0.494 µM; TGI (BT-549 breast): 22 µM; GI50 (SK-MEL-5 melanoma): 0.0717 µM; GI50 (NCI/ADR-RES ovarian): 0.0549 µM; TGI (NCI/ADR-RES ovarian): 41.5 µM; GI50 (RXF 393 renal): 0.219 µM; GI50 (MDA-MB-435): 0.0266 µM; TGI (MDA-MB-435): 0.0977 µM; GI50 (SN12C renal): 1.28 µM; GI50 (SNB-75 CNS): 0.122 µM
24 | O=C1NC2(CN3CCC2CC3)C(=O)N1CN(Cc1ccccc1)c1ccccc1 (stereo unspecified) | > 100 µM | > 100 µM | > 100 µM |  |  | > 100 µM |  | TGI (BT-549 breast): > 100 µM; TGI (NCI/ADR-RES ovarian): > 100 µM; TGI (MDA-MB-435): > 100 µM
25 | C[C-](O)O.O/C(=C\[C-](O)c1ccccc1)c1ccccc1.O/C(=C\[C-](O)c1ccccc1)c1ccccc1.[Nd+3] (stereo unspecified) | 18 µM |  |  |  | > 100 µM | 6.35 µM | 16.1 µM | GI50 (SK-MEL-5 melanoma): 5.22 µM; GI50 (DMS 273 small cell lung): 3.25 µM; GI50 (SN12C renal): 5.99 µM; GI50 (LXFL 529 NSCLC): 5.79 µM; GI50 (SNB-75 CNS): 1.77 µM
